The target of assay [1] is BRD4-BD1 (Homo sapiens (Human), UniProt O60885). Kind of assay: BRD4 AlphaScreen assay, BRD4-BD1. The format is binding. The following applies: H4Ac4 peptide, 75 min, room temperature, read-out: BRD4 BD-1 enzyme IC50. The method in brief:
(§1)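 AlphaScreen read after 75 min dark incubation at room temperature, inhibitors serially diluted in DMSO and added before other components. IC50 from fit of percent control activity versus log inhibitor concentration.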

Assay [2] addresses BRD4-BD2 (Homo sapiens (Human), UniProt O60885). The experiment in a line: BRD4 AlphaScreen assay, BRD4-BD2. The format is binding. The following applies: H4Ac4 peptide, 75 min, room temperature, read-out: BRD4 BD-2 enzyme IC50. An outline of the steps: as §1
Assay [3] deals with KMS.12.BM cells. Kind of assay: KMS.12.BM cell viability assay (Cell Titer-GLO, ATP quantitation). It counts as cell-based. As to conditions: Homo sapiens, 72 h, 3 days, concentration required for 50% cell death, read-out: KMS cellular IC50. An outline of the steps:
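Human myeloma KMS.12.BM cells, 5000 cells/well in RPMI with 10% FBS, were exposed to a compound concentration range for 3 days. Viability was read by Cell Titer-GLO ATP luminescence relative to untreated cells; IC50 is the concentration giving 50% cell death.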

The subject of assay [4] is C-myc. Kind of assay: KMS.12.BM C-myc ELISA assay. It counts as cell-based. As to conditions: Homo sapiens; KMS.12.BM cells, 2 hours, concentration required for 50% C-myc inhibition. An outline of the steps:
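Human myeloma KMS.12.BM cells in RPMI/10% FBS were exposed to a compound concentration range for 2 h, then lysed with protease inhibitors. C-myc in clarified lysates was measured by ELISA. IC50 is the concentration giving 50% C-myc inhibition relative to untreated cells.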

Experimental findings from patent publication US9918990B2, “Substituted pyrrolo[2,3-c]pyridines and pyrazolo[3,4-c]pyridines as BET protein inhibitors” (Incyte Corporation, priority 2013, dated 2018) are described below.

As for `Cn1cc(-c2ccc3oc(CNC(=O)c4ccccc4)nc3c2Oc2ccccc2)c2cc[nH]c2c1=O` [Example 106, N-{[5-(6-methyl-7-oxo-6,7-dihydro-1H-pyrrolo[2,3-c]pyridin-4-yl)-4-phenoxy-1,3-benzoxazol-2-yl]methyl}benzamide], the IC50 in assay [1] is below 0.1 µM; in assay [2] it was below 0.1 µM; in assay [3], at most 1 µM; in assay [4], 1 to 10 µM.
For `Cn1cc(-c2ccc3oc(CNC(=O)Cc4ccccc4)nc3c2Oc2ccccc2)c2cc[nH]c2c1=O` [Example 107, N-{[5-(6-Methyl-7-oxo-6,7-dihydro-1H-pyrrolo[2,3-c]pyridin-4-yl)-4-phenoxy-1,3-benzoxazol-2-yl]methyl}-2-phenylacetamide], the IC50 in assay [1] is below 0.1 µM; in assay [2], below 0.1 µM; in assay [3], at most 1 µM; in assay [4] it was at most 1 µM.
Consider `Cn1cc(-c2ccc3oc(CNC(=O)C4CC4)nc3c2Oc2ccccc2)c2cc[nH]c2c1=O` [Example 108, N-{[5-(6-Methyl-7-oxo-6,7-dihydro-1H-pyrrolo[2,3-c]pyridin-4-yl)-4-phenoxy-1,3-benzoxazol-2-yl]methyl}cyclopropanecarboxamide], for which the IC50 was below 0.1 µM in assay [1], below 0.1 µM in assay [2], at most 1 µM in assay [3] and at most 1 µM in assay [4].
As for `Cn1cc(-c2ccc3oc(CNC(=O)CC4CCCC4)nc3c2Oc2ccccc2)c2cc[nH]c2c1=O` [Example 109, 2-Cyclopentyl-N-{[5-(6-methyl-7-oxo-6,7-dihydro-1H-pyrrolo[2,3-c]pyridin-4-yl)-4-phenoxy-1,3-benzoxazol-2-yl]methyl}acetamide], the IC50 in assay [1] was below 0.1 µM; in assay [2] it was below 0.1 µM; in assay [3] it was at most 1 µM; in assay [4] it was 1 to 10 µM.
Turning to `Cn1cc(-c2ccc3c(ncn3CCC#N)c2Oc2ccccc2)c2cc[nH]c2c1=O` [Example 113, 3-[5-(6-Methyl-7-oxo-6,7-dihydro-1H-pyrrolo[2,3-c]pyridin-4-yl)-4-phenoxy-1H-benzimidazol-1-yl]propanenitrile], the IC50 in assay [1] is below 0.1 µM; in assay [2] it was below 0.1 µM; in assay [3] it was at most 1 µM; in assay [4], at most 1 µM.
